Assay [1] has as its system Trypanosoma cruzi. Nature of the assay: Trypanocidal activity against amastigote forms of Y strain of Trypanosoma cruzi. In kind it is functional, organism-based.
Assay [2] relates to Trypanosoma cruzi. Nature of the assay: Percentage delyse against amastigote forms of Y strain of Trypanosoma cruzi at 32 uM. In kind it is functional.
Assay [3] has as its system Trypanosoma cruzi. Nature of the assay: Percentage delyse against amastigote forms of Y strain of Trypanosoma cruzi at 2 uM. In kind it is functional.
In assay [4] the test system is Trypanosoma cruzi. Nature of the assay: Percentage delyse against amastigote forms of Y strain of Trypanosoma cruzi at 8 uM. In kind it is functional.
Assay [5] concerns Trypanosoma cruzi. Nature of the assay: Percentage delyse against amastigote forms of Y strain of Trypanosoma cruzi at 0.5 uM. The assay is classed as functional.

SMILES strings stand for the structures.

On to `O=C(Cn1ccnc1[N+](=O)[O-])NCc1ccccc1` [BENZNIDAZOLE], for which the IC50 (as a rule, the midpoint of a concentration-inhibition curve) with Trypanosoma cruzi [1] worked out at 0.8 µM. Also, the Delyse in the assay with Trypanosoma cruzi [2] stood at 68%; in the assay with Trypanosoma cruzi [3], 67%; with Trypanosoma cruzi [4] it was 69%; in the assay with Trypanosoma cruzi [5], 38.4%.

In the assay with Trypanosoma cruzi [1], `CN(C)CCOC1OC[C@H](Cc2ccc3c(c2)OCO3)[C@@H]1Cc1ccc2c(c1)OCO2` (stereo not given in full) came in with a half-inhibitory concentration (IC50) of 4.7 µM. For the same compound, the Delyse in the assay with Trypanosoma cruzi [2] was determined as 57.8%; in the assay on Trypanosoma cruzi [3], 55.4%; with Trypanosoma cruzi [4] it was 50.8%; in the assay on Trypanosoma cruzi [5] it was 33.6%.

In the case of `c1ccc(COC2OC[C@H](Cc3ccc4c(c3)OCO4)[C@@H]2Cc2ccc3c(c2)OCO3)cc1` (stereo not given in full), in the assay on Trypanosoma cruzi [1], the IC50 is 5.7 µM. The Delyse with Trypanosoma cruzi [2] is 68.8%; with Trypanosoma cruzi [3], 38%; in the assay with Trypanosoma cruzi [4], 46.8%; in the assay on Trypanosoma cruzi [5], 37%.

In turn, `O=C1OC[C@H](Cc2ccc3c(c2)OCO3)[C@@H]1Cc1ccc2c(c1)OCO2` yielded a 50% inhibitory concentration (IC50) in the assay with Trypanosoma cruzi [1] of 0.7 µM. For the same compound, the Delyse in the assay with Trypanosoma cruzi [2] is listed as 63.6%; with Trypanosoma cruzi [3] it was 57%; in the assay with Trypanosoma cruzi [4], 57.6%; in the assay on Trypanosoma cruzi [5], 47.6%.

Consider `CC(=O)OC1OC[C@H](Cc2ccc3c(c2)OCO3)[C@@H]1Cc1ccc2c(c1)OCO2` (stereo not given in full), for which, in the assay with Trypanosoma cruzi [1], the IC50 is around 15000 µM. Also, the Delyse in the assay on Trypanosoma cruzi [2] is 26.4%; in the assay on Trypanosoma cruzi [3], 26%; in the assay with Trypanosoma cruzi [4], 29%; with Trypanosoma cruzi [5], 14.5%.

Consider `O=C1OC[C@H](Cc2cc3c(cc2[N+](=O)[O-])OCO3)[C@@H]1Cc1cc2c(cc1[N+](=O)[O-])OCO2`, for which inhibition in the assay with Trypanosoma cruzi [1] was half-maximal at 95.3 µM (IC50). The Delyse in the assay on Trypanosoma cruzi [2] amounted to 48.5%; in the assay with Trypanosoma cruzi [3], 48.7%; in the assay on Trypanosoma cruzi [4] it was 38.9%; in the assay with Trypanosoma cruzi [5] it was 34.6%.

The record behind these values is ChEMBL document CHEMBL1142828, “Trypanocidal activity of (-)-cubebin derivatives against free amastigote forms of Trypanosoma cruzi” (Bioorg Med Chem Lett, 2005).
